From the supplement of paper PMC10307832

What was measured:
Assay in all cases: relative viability (nuclei count vs DMSO), 5 days (fraction); higher = more cells survive
Calu-6 = test system: Calu-6
Summary of the method: (§1)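 A single step with final 0.05% Triton X-100, 1% formaldehyde and 1 ug/ml Hoechst fixed the cells and stained nuclei 5 days after treatment. Lung cancer cell lines in 1536-well plates had been treated by pin tool the day after seeding with one drug alone or a fixed anchor-drug dose plus five library-drug doses (not always all listed) in √10 steps, and nuclei were counted on 4× images. Relative viability is the ratio of nuclei in treated wells to nuclei in vehicle wells, taken as the median of duplicate plates.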

IA-LM = test system: IA-LM
Summary of the method: as §1

CAL-12T = test system: CAL-12T
Summary of the method: as §1

NCI-H1703 = test system: NCI-H1703
Summary of the method: as §1

NCI-H1650 = test system: NCI-H1650
Summary of the method: as §1

EBC-1 = test system: EBC-1
Summary of the method: as §1

LK-2 = test system: LK-2
Summary of the method: as §1

A549 = test system: A549
Summary of the method: as §1

NCI-H1299 = test system: NCI-H1299
Summary of the method: as §1

Compound `Oc1nc(-c2ccc(C(F)(F)F)cc2)nc2c1CSCC2` [XAV939] + CS(=O)(=O)N1CCN(Cc2cc3nc(-c4cccc5[nH]ncc45)nc(N4CCOCC4)c3s2)CC1 [Pictilisib] (partner 1 µM) has a relative viability (Calu-6; first compound 0.08 µM) of 1.09, a relative viability (Calu-6; first compound 0.253 µM) of 0.843 and a relative viability (Calu-6; first compound 0.8 µM) of 0.972. The relative viability (Calu-6; first compound 2.53 µM) was 0.841, the relative viability (IA-LM; first compound 0.08 µM) was 0.449 and the relative viability (IA-LM; first compound 0.253 µM) was 0.317. For the same compound, the relative viability (IA-LM; first compound 0.8 µM) was 0.245, the relative viability (IA-LM; first compound 2.53 µM) was 0.17 and the relative viability (CAL-12T; first compound 0.08 µM) was 0.433. The relative viability (CAL-12T; first compound 0.253 µM) was 0.33, the relative viability (CAL-12T; first compound 0.8 µM) was 0.373 and the relative viability (CAL-12T; first compound 2.53 µM) was 0.34. For the same compound, the relative viability (NCI-H1703; first compound 0.08 µM) was 0.275, the relative viability (NCI-H1703; first compound 0.253 µM) was 0.243 and the relative viability (NCI-H1703; first compound 0.8 µM) was 0.258. It also gave a relative viability (NCI-H1703; first compound 2.53 µM) of 0.241, a relative viability (NCI-H1650; first compound 0.08 µM) of 0.587 and a relative viability (NCI-H1650; first compound 0.253 µM) of 0.615. It also gave a relative viability (NCI-H1650; first compound 0.8 µM) of 0.49, a relative viability (NCI-H1650; first compound 2.53 µM) of 0.394 and a relative viability (EBC-1; first compound 0.08 µM) of 0.437. For the same compound, the relative viability (EBC-1; first compound 0.253 µM) was 0.346, the relative viability (EBC-1; first compound 0.8 µM) was 0.329 and the relative viability (EBC-1; first compound 2.53 µM) was 0.261. It also gave a relative viability (LK-2; first compound 0.08 µM) of 0.565, a relative viability (LK-2; first compound 0.253 µM) of 0.505 and a relative viability (LK-2; first compound 0.8 µM) of 0.643. For the same compound, the relative viability (LK-2; first compound 2.53 µM) was 0.607, the relative viability (A549; first compound 0.08 µM) was 0.629 and the relative viability (A549; first compound 0.253 µM) was 0.491. It also gave a relative viability (A549; first compound 0.8 µM) of 0.372, a relative viability (A549; first compound 2.53 µM) of 0.296 and a relative viability (NCI-H1299; first compound 0.08 µM) of 0.857. For the same compound, the relative viability (NCI-H1299; first compound 0.253 µM) was 0.701, the relative viability (NCI-H1299; first compound 0.8 µM) was 0.642 and the relative viability (NCI-H1299; first compound 2.53 µM) was 0.511.
`NC(=O)Nc1cc(-c2cccc(F)c2)sc1C(=O)N[C@H]1CCCNC1` [AZD7762] + CC1(C)CCC(c2ccc(Cl)cc2)=C(CN2CCN(c3ccc(C(=O)NS(=O)(=O)c4ccc(N[C@H](CCN5CCOCC5)CSc5ccccc5)c(S(=O)(=O)C(F)(F)F)c4)cc3)CC2)C1 [Navitoclax] (partner 0.5 µM) gave a relative viability (Calu-6; first compound 0.01 µM) of 0.813, a relative viability (Calu-6; first compound 0.03162 µM) of 0.812 and a relative viability (Calu-6; first compound 0.1 µM) of 0.531. The relative viability (Calu-6; first compound 0.3162 µM) was 0.129, the relative viability (Calu-6; first compound 1 µM) was 0.091 and the relative viability (IA-LM; first compound 0.01 µM) was 0.992. It also gave a relative viability (IA-LM; first compound 0.03162 µM) of 0.858, a relative viability (IA-LM; first compound 0.1 µM) of 0.915 and a relative viability (IA-LM; first compound 0.3162 µM) of 0.985. It also gave a relative viability (IA-LM; first compound 1 µM) of 0.187, a relative viability (CAL-12T; first compound 0.01 µM) of 1.23 and a relative viability (CAL-12T; first compound 0.03162 µM) of 1.18. The relative viability (CAL-12T; first compound 0.1 µM) was 1.24, the relative viability (CAL-12T; first compound 0.3162 µM) was 1.09 and the relative viability (CAL-12T; first compound 1 µM) was 0.169. The relative viability (NCI-H1703; first compound 0.01 µM) was 0.673, the relative viability (NCI-H1703; first compound 0.03162 µM) was 0.286 and the relative viability (NCI-H1703; first compound 0.1 µM) was 0.253. It also gave a relative viability (NCI-H1703; first compound 0.3162 µM) of 0.178, a relative viability (NCI-H1703; first compound 1 µM) of 0.114 and a relative viability (NCI-H1650; first compound 0.01 µM) of 1.33. It also gave a relative viability (NCI-H1650; first compound 0.03162 µM) of 1.42, a relative viability (NCI-H1650; first compound 0.1 µM) of 1.22 and a relative viability (NCI-H1650; first compound 0.3162 µM) of 0.917. It also gave a relative viability (NCI-H1650; first compound 1 µM) of 0.327, a relative viability (EBC-1; first compound 0.01 µM) of 0.524 and a relative viability (EBC-1; first compound 0.03162 µM) of 0.427. For the same compound, the relative viability (EBC-1; first compound 0.1 µM) was 0.292, the relative viability (EBC-1; first compound 0.3162 µM) was 0.299 and the relative viability (EBC-1; first compound 1 µM) was 0.182. The relative viability (LK-2; first compound 0.01 µM) was 0.849, the relative viability (LK-2; first compound 0.03162 µM) was 0.822 and the relative viability (LK-2; first compound 0.1 µM) was 0.838. It also gave a relative viability (LK-2; first compound 0.3162 µM) of 0.756, a relative viability (LK-2; first compound 1 µM) of 0.607 and a relative viability (A549; first compound 0.01 µM) of 1.18. The relative viability (A549; first compound 0.03162 µM) was 1.29, the relative viability (A549; first compound 0.1 µM) was 1.2 and the relative viability (A549; first compound 0.3162 µM) was 0.898. The relative viability (A549; first compound 1 µM) was 0.269, the relative viability (NCI-H1299; first compound 0.01 µM) was 1.06 and the relative viability (NCI-H1299; first compound 0.03162 µM) was 1.06. The relative viability (NCI-H1299; first compound 0.1 µM) was 1.09, the relative viability (NCI-H1299; first compound 0.3162 µM) was 1.08 and the relative viability (NCI-H1299; first compound 1 µM) was 0.976.
Work on `O=C(O)c1ccc(-c2c[nH]c3ncc(-c4ccccc4)cc23)cc1C1CCCC1` + CS(=O)(=O)CCNCc1ccc(-c2ccc3ncnc(Nc4ccc(OCc5cccc(F)c5)c(Cl)c4)c3c2)o1 [Lapatinib] (partner 2 µM) yielded a relative viability (Calu-6; first compound 0.04 µM) of 1.02, a relative viability (Calu-6; first compound 0.1265 µM) of 1.09 and a relative viability (Calu-6; first compound 0.4 µM) of 0.984. The relative viability (Calu-6; first compound 1.265 µM) was 0.78, the relative viability (IA-LM; first compound 0.04 µM) was 0.913 and the relative viability (IA-LM; first compound 0.1265 µM) was 1.03. For the same compound, the relative viability (IA-LM; first compound 0.4 µM) was 0.974, the relative viability (IA-LM; first compound 1.265 µM) was 0.782 and the relative viability (CAL-12T; first compound 0.04 µM) was 0.788. The relative viability (CAL-12T; first compound 0.1265 µM) was 0.908, the relative viability (CAL-12T; first compound 0.4 µM) was 0.705 and the relative viability (CAL-12T; first compound 1.265 µM) was 0.423. The relative viability (NCI-H1703; first compound 0.04 µM) was 1.11, the relative viability (NCI-H1703; first compound 0.1265 µM) was 1.44 and the relative viability (NCI-H1703; first compound 0.4 µM) was 1.06. For the same compound, the relative viability (NCI-H1703; first compound 1.265 µM) was 0.929, the relative viability (NCI-H1650; first compound 0.04 µM) was 0.731 and the relative viability (NCI-H1650; first compound 0.1265 µM) was 0.758. It also gave a relative viability (NCI-H1650; first compound 0.4 µM) of 0.725, a relative viability (NCI-H1650; first compound 1.265 µM) of 0.529 and a relative viability (EBC-1; first compound 0.04 µM) of 0.224. The relative viability (EBC-1; first compound 0.1265 µM) was 0.215, the relative viability (EBC-1; first compound 0.4 µM) was 0.227 and the relative viability (EBC-1; first compound 1.265 µM) was 0.242. It also gave a relative viability (LK-2; first compound 0.04 µM) of 0.968, a relative viability (LK-2; first compound 0.1265 µM) of 0.902 and a relative viability (LK-2; first compound 0.4 µM) of 0.744. The relative viability (LK-2; first compound 1.265 µM) was 0.934, the relative viability (A549; first compound 0.04 µM) was 1.01 and the relative viability (A549; first compound 0.1265 µM) was 0.985. For the same compound, the relative viability (A549; first compound 0.4 µM) was 0.899, the relative viability (A549; first compound 1.265 µM) was 0.837 and the relative viability (NCI-H1299; first compound 0.04 µM) was 0.945. For the same compound, the relative viability (NCI-H1299; first compound 0.1265 µM) was 1, the relative viability (NCI-H1299; first compound 0.4 µM) was 0.938 and the relative viability (NCI-H1299; first compound 1.265 µM) was 0.829.
